Source: PubChem BioAssay (NCI)
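A five-concentration, 48-hour dose response in 96-well plates underlies each endpoint, interpolated linearly between surrounding concentrations. GI50 is the concentration that inhibits growth by half. TGI denotes the concentration required for complete inhibition of growth.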

Tests used:
Test in all cases: NCI-60 cell line screen, 48 h
[1] = test system: ACHN renal
[2] = test system: NCI-H226 lung
[3] = test system: SF-268 CNS
[4] = test system: SK-MEL-28 melanoma
[5] = test system: SK-OV-3 ovarian
[6] = test system: UACC-62 melanoma
[7] = test system: HS 578T breast
[8] = test system: MDA-MB-231 breast
[9] = test system: SR leukemia
[10] = test system: MDA-MB-435

Row | Structure (SMILES) | TGI [1] [µM] | TGI [2] [µM] | TGI [3] [µM] | TGI [4] [µM] | TGI [5] [µM] | TGI [6] [µM] | GI50 [1] [µM] | GI50 [7] [µM] | TGI [7] [µM] | GI50 [8] [µM] | TGI [8] [µM] | GI50 [3] [µM] | GI50 [5] [µM] | GI50 [9] [µM] | TGI [9] [µM] | GI50 [6] [µM] | TGI [10] [µM] | GI50 [10] [µM] | GI50 [2] [µM] | GI50 [4] [µM]
1 | COc1ccccc1NC(=O)C1=C(C)NC(C)=C(C(=O)Nc2ccccc2OC)C1c1cccc2ccccc12 | > 100 | > 100 | > 100 | > 100 | > 100 | > 100 | – | – | – | – | – | – | – | – | – | – | – | – | – | –
2 | COc1ccc(/C=C\c2cc(OC)c(OC)c(OC)c2)cc1OCC(=O)Nc1nc2ccccc2s1 | > 100 | – | > 100 | – | > 100 | > 100 | 0.107 | 26 | > 100 | 0.179 | > 100 | 0.23 | 0.374 | 0.0363 | > 100 | 0.0587 | – | – | – | –
3 | O=C1c2cccc3c(Cl)ccc(c23)C(=O)N1CCCN1CCN(CCCN2C(=O)c3cccc4c(Cl)ccc(c34)C2=O)CC1 | > 100 | > 100 | – | – | > 100 | > 100 | – | – | – | – | – | – | – | – | – | – | – | – | – | –
4 | CCOc1cc2c(=O)oc3c(OC)ccc4ccc(c1OC)c2c43 | > 100 | > 100 | > 100 | > 100 | > 100 | > 100 | – | – | > 100 | – | 97.5 | – | – | – | – | – | > 100 | – | – | –
5 | Fc1cccc(Cl)c1Cn1c(-c2c(F)cccc2Cl)nc2ccccc21 | 41.4 | 57.8 | 32.6 | 46.2 | 44.6 | 29.8 | 18.9 | 21.6 | 65.3 | 13.2 | 29.3 | 15 | 18.4 | – | – | 12.8 | 61.7 | 20.1 | 22 | 20.4
6 | ClC1c2ccccc2C2(c3ccccc3)OOC1(c1ccccc1)O2 (configuration not stated) | 2.89 | 4.08 | 4.19 | 3.8 | – | 3.66 | – | – | – | – | – | – | – | – | 3.4 | – | – | – | – | –
7 | Cc1cccc(C(C)C)c1NC(=O)CCl | > 100 | > 100 | > 100 | > 100 | > 100 | 63.2 | – | – | – | – | – | – | – | – | > 100 | – | – | – | – | –
8 | COc1cc(C(=O)O/N=C(\N)Cc2cccc3ccccc23)cc(OC)c1OC | 20.3 | 42.5 | 22.9 | 26.2 | 30.6 | 6.73 | 7.11 | 6.64 | 41.4 | 4.12 | 18 | 7.55 | 16.5 | – | – | 2.49 | 6.42 | 2.4 | 16.9 | 12.4
9 | CC(C)CN1CC(C)C(=O)NC1=O (configuration not stated) | > 100 | > 100 | > 100 | > 100 | > 100 | > 100 | – | – | – | – | – | – | – | – | > 100 | – | – | – | – | –
10 | COc1ccc(-n2cc(-c3cc(OC)c(OC)c(OC)c3)[nH]c2=S)cc1Cl | > 100 | > 100 | 50.3 | > 100 | 48.3 | > 100 | 44.3 | 17.5 | 60 | 7.7 | 49.8 | 18.3 | 17 | – | – | > 100 | > 100 | > 100 | 27.1 | 63
11 | CCC(C)c1cccc(C)c1NC(=O)C(=O)Cc1nc2ccccc2s1 (configuration not stated) | > 100 | – | > 100 | > 100 | > 100 | > 100 | – | – | – | – | – | – | – | – | – | – | – | – | – | –
12 | CC(=O)Nc1ccc(-c2csc(Nc3cccc(-c4csc(-c5ccccc5)n4)c3)n2)cc1 | 27.5 | – | > 50 | 36.4 | > 50 | 14.9 | 8.3 | 37.2 | > 50 | 13.5 | 37.9 | 20 | > 50 | 27.3 | > 50 | 4.7 | > 50 | 15.2 | – | 6.75
13 | CN(C)CCNC(=O)c1c2ccccc2cc2ccccc12 | > 100 | 48.5 | > 100 | 64.4 | > 100 | 53.4 | – | – | – | – | – | – | – | – | 26.3 | – | – | – | – | –
14 | COc1cnc2c(c1)C(=O)c1c-2n(CCCNCCN2CCOCC2)c(=O)c2cc([N+](=O)[O-])ccc12 | 0.201 | – | 13.3 | 14.3 | 1.62 | 0.434 | 0.0365 | 3.85 | 26.9 | 0.63 | 2.65 | 0.0818 | 0.142 | 0.0151 | 1.02 | 0.0438 | 15.4 | 0.42 | – | 1.13
15 | COc1ccc(-c2nnc(SCC(=O)Nc3ccc(C(=O)/C=C/c4cc(OC)c(OC)c(OC)c4)cc3)n2-c2ccccc2)cc1OC | > 10 | 8.06 | > 10 | > 10 | > 10 | > 10 | 5.69 | – | – | 4.84 | > 10 | 3.46 | 6.06 | 0.666 | > 10 | 6.4 | 9.91 | 1.77 | 2.29 | > 10
16 | Cc1ccc(/C=C/C(=O)c2ccc([N+](=O)[O-])cc2)cc1 | > 100 | > 100 | > 100 | > 100 | > 100 | > 100 | – | – | – | – | – | – | – | – | > 100 | – | – | – | – | –
17 | C=C1CCC2C(C)(CO)C(O)CCC2(C)C1C/C=C1/CCOC1=O (configuration not stated) | > 100 | > 100 | – | – | > 100 | > 100 | – | – | – | – | – | – | – | – | > 100 | – | – | – | – | –
18 | CN(C)C(=S)/N=c1\ss/c(=N\C(=S)N(C)C)n1Cc1ccco1 | > 100 | > 100 | > 100 | > 100 | > 100 | > 100 | – | – | – | – | – | – | – | – | > 100 | – | – | – | – | –
19 | OCC(O)COc1c(Cl)cc(Cl)cc1Cl (configuration not stated) | > 100 | > 100 | > 100 | > 100 | > 100 | > 100 | – | – | – | – | – | – | – | – | > 100 | – | – | – | – | –
20 | O=C(CCN1CCCC1)Nc1ccc2c(NCCc3ccccc3)c3ccccc3nc2c1 | 2.02 | 1.95 | 1.91 | 1.87 | 2.07 | 1.13 | 0.51 | – | – | 0.452 | 1.82 | 0.481 | 0.422 | 0.171 | 1.56 | 0.316 | 1.52 | 0.416 | 0.374 | 0.599
